Test results published in ChEMBL document CHEMBL1201862, “PubChem BioAssay data set” (2004).
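A five-concentration, 48-hour dose response in 96-well plates underlies each endpoint, interpolated linearly between surrounding concentrations. At the GI50, growth is halved.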 The source made the active and inactive calls. Rule as the data show it: active = GI50 up to about 1.1 µM and inactive = higher.

Tests used:
Test in all cases: inhibition of tumour cell growth, NCI panel, 48 h
COLO 205 = tested on: COLO 205
DU-145 = tested on: DU-145
HL-60 = tested on: HL-60
HT-29 = tested on: HT-29
K562 = tested on: K562
MDA-MB-231 = tested on: MDA-MB-231
MOLT-4 = tested on: MOLT-4
Malme-3M = tested on: Malme-3M
NCI-H226 = tested on: NCI-H226
NCI-H522 = tested on: NCI-H522
OVCAR-8 = tested on: OVCAR-8
RPMI-8226 = tested on: RPMI-8226
RXF 393 = tested on: RXF 393
SF-268 = tested on: SF-268
SF-539 = tested on: SF-539
SK-MEL-5 = tested on: SK-MEL-5
SR = tested on: SR
SW-620 = tested on: SW-620
UO-31 = tested on: UO-31
NCI-H460 = tested on: NCI-H460

Measured: GI50

COc1ccc(C(OCC2OC3(COC(c4ccccc4)(c4ccc(OC)cc4)c4ccc(OC)cc4)C(Oc4nc(=O)ccn43)C2O)(c2ccccc2)c2ccc(OC)cc2)cc1 (stereo unspecified)
inactive: COLO 205 > 100 µM | DU-145 > 100 µM | HL-60 > 100 µM | HT-29 > 100 µM | K562 > 100 µM | MDA-MB-231 > 100 µM | MOLT-4 > 100 µM | Malme-3M > 100 µM | NCI-H226 > 100 µM | NCI-H522 > 100 µM | OVCAR-8 > 100 µM | RPMI-8226 71.1 µM | RXF 393 > 100 µM | SF-268 > 100 µM | SF-539 > 100 µM | SK-MEL-5 > 100 µM | SR > 100 µM | SW-620 > 100 µM | UO-31 > 100 µM

CC(=O)OCC1OC(n2c(-c3ccccc3)c(C(C)=O)c(-c3ccc(Cl)cc3)c(C#N)c2=S)C(OC(C)=O)C(OC(C)=O)C1OC(C)=O (stereo unspecified)
inactive: COLO 205 > 100 µM | DU-145 > 100 µM | HL-60 > 100 µM | HT-29 > 100 µM | K562 > 100 µM | MDA-MB-231 70.3 µM | MOLT-4 > 100 µM | Malme-3M > 100 µM | NCI-H226 > 100 µM | NCI-H460 26.8 µM | NCI-H522 > 100 µM | OVCAR-8 > 100 µM | RXF 393 65.5 µM | SF-268 50.4 µM | SF-539 > 100 µM | SK-MEL-5 21.2 µM | SR > 100 µM | SW-620 > 100 µM

Cc1noc(NS(=O)(=O)c2ccc(NC(=O)c3ccc4nc5ccccc5c(Nc5ccc(S(=O)(=O)Nc6onc(C)c6C)cc5)c4c3)cc2)c1C
inactive: COLO 205 > 100 µM | DU-145 > 100 µM | HL-60 42.3 µM | HT-29 73.3 µM | K562 25.5 µM | MDA-MB-231 22.1 µM | MOLT-4 80.5 µM | Malme-3M > 100 µM | NCI-H226 > 100 µM | NCI-H460 67.3 µM | NCI-H522 52.1 µM | OVCAR-8 > 100 µM | RPMI-8226 36.2 µM | RXF 393 40.3 µM | SF-268 > 100 µM | SF-539 > 100 µM | SK-MEL-5 49.4 µM | SR 42 µM | SW-620 97.7 µM | UO-31 > 100 µM

CCOC(CCNCC(OCC)OCC)OCC
inactive: COLO 205 > 10 µM | DU-145 > 10 µM | HL-60 > 10 µM | HT-29 > 10 µM | K562 > 10 µM | MDA-MB-231 > 10 µM | MOLT-4 > 10 µM | Malme-3M > 10 µM | NCI-H226 > 10 µM | NCI-H460 > 10 µM | NCI-H522 > 10 µM | OVCAR-8 > 10 µM | RPMI-8226 > 10 µM | RXF 393 > 10 µM | SF-268 > 10 µM | SF-539 > 10 µM | SK-MEL-5 > 10 µM | SR > 10 µM

O=C1C[C@@]23CCC4(CC2=CCC[C@H]3O1)OCCO4
inactive: COLO 205 > 100 µM | DU-145 > 100 µM | HL-60 > 100 µM | HT-29 > 100 µM | K562 > 100 µM | MDA-MB-231 > 100 µM | MOLT-4 > 100 µM | Malme-3M > 100 µM | NCI-H226 > 100 µM | NCI-H460 > 100 µM | NCI-H522 > 100 µM | RPMI-8226 > 100 µM | RXF 393 > 100 µM | SF-268 > 100 µM | SF-539 > 100 µM | SK-MEL-5 > 100 µM | SR > 100 µM | SW-620 > 100 µM

COc1ccc(/C=C2\N=C3NC(=O)C(N4CCCCC4)=C(N)N3C2=O)cc1
inactive: COLO 205 > 100 µM | DU-145 > 100 µM | HL-60 25.9 µM | HT-29 > 100 µM | K562 62.4 µM | MDA-MB-231 > 100 µM | MOLT-4 > 100 µM | Malme-3M > 100 µM | NCI-H226 > 100 µM | NCI-H522 > 100 µM | OVCAR-8 > 100 µM | RPMI-8226 > 100 µM | RXF 393 > 100 µM | SF-268 > 100 µM | SF-539 > 100 µM | SK-MEL-5 > 100 µM | SR > 100 µM | SW-620 > 100 µM | UO-31 > 100 µM

CC(CC(C)[C@H]1CCC2[C@H]3C(CC(=O)[C@@]21C)[C@@]1(C)CCC(O)C[C@H]1C[C@@H]3O)C(=O)O (stereo partly specified)
inactive: COLO 205 > 100 µM | DU-145 > 100 µM | HL-60 46.8 µM | HT-29 > 100 µM | K562 34.7 µM | MDA-MB-231 > 100 µM | MOLT-4 46.2 µM | Malme-3M > 100 µM | NCI-H226 > 100 µM | NCI-H460 61.8 µM | NCI-H522 > 100 µM | OVCAR-8 > 100 µM | RPMI-8226 41.3 µM | RXF 393 > 100 µM | SF-268 > 100 µM | SF-539 > 100 µM | SR 18.3 µM | SW-620 87.1 µM | UO-31 58.9 µM
